Measured values: patent publication US20230183233A1, “Bicyclic Pyridin-2-one and pyrimidin-4-one Derivatives Useful As a Factor XIa Inhibitors” (Janssen Pharmaceutica NV, priority 2021, published 2023)
Where two headings read alike, the source gives them in different places. 5‑FAM = 5-carboxyfluorescein (5-FAM) label at the N-terminus

Assays:
Type in all cases: biochemical
[1] = target: T1, Factor XIa (Homo sapiens, UniProt P03951); test: Factor XIa inhibition assay utilizing a fluorophore-quencher pair peptide substrate (FLINT, kinetic read); conditions: read-out: FXIa KIN Inh IC50
T1 sequence (P03951 388-625 limits assumed): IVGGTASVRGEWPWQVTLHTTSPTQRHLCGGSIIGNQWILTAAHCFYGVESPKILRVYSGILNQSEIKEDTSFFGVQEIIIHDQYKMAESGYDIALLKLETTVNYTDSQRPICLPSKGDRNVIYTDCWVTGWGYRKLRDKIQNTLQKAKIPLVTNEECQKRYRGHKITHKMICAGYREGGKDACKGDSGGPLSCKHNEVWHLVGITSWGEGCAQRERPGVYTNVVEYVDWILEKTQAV
T1 sequence (P03951 19-387 partner limits assumed): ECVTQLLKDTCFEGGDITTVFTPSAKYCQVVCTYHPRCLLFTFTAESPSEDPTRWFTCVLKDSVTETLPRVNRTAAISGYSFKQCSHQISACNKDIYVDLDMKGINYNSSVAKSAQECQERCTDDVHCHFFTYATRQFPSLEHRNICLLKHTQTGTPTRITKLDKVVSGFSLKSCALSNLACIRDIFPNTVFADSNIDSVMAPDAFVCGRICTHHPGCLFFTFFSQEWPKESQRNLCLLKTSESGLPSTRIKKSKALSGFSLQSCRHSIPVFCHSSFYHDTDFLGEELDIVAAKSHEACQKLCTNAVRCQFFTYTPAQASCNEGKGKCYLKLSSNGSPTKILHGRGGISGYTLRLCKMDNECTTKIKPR
From the text: Biological Example 1: Factor XIa Inhibition Assay Utilizing a Fluorophore-Quencher Pair Peptide Substrate A fluorescence intensity (FLINT) based assay was used to monitor inhibition of Factor XIa. The peptide substrate, 5Fam-[…]-K5Tamra (purchased from New England Peptide) was chosen based on the FXI sequence. Conversion of zymogen FXI to its activated form, FXIa, occurs by proteolytic cleavage by […] at two sites, Arg146 and Arg180. The custom peptide used in this assay was based on the Arg146 cleavage site of FXI. The peptide substrate was designed with a fluorophore-quencher pair, where the fluorescence is quenched until FXIa cleaves the 8-mer peptide after the Arg residue.
The 2× Factor XIa stock solution was prepared by diluting 6.562 μM stock in 1× assay buffer for a […].
Test compound(s) were run in an 11-point, 3-fold serial dilution with a final top compound concentration of 100 nM. Final DMSO in assay was 2%. FXIa was preincubated with compound for 30-minutes and then substrate was added to initiate the reaction. The assay was run with kinetic (KIN) reads at 5 min intervals over 30 minutes. […] More specifically, the assay was run as follows: • 100 nL of 0.01 mM test compound was dispensed into black 384-well non-binding Greiner BioOne 784900 plate for 0.1 μM final concentration; • 5 μL of 1× assay buffer was dispensed to column 24 (low control) and 5 μL 2× Factor XIa solution was dispensed to columns 1-23 (column 23 high control); • the plate was centrifuged with a “cover” plate at 500 rpm for 1 min • the plate was pre-incubated for 30 minutes at room temperature with plate covered; • 5 μL of 2× 5Fam-[…]-K5Tamra peptide substrate was dispensed into the entire plate, columns 1-24; • the plate was centrifuged with a “cover” plate at 500 rpm for 1 min; • the plate was read monitoring fluorescence intensity on the BMG PHERAStar at room temperature, using fluorescence module 485 nm/520 nm.
Percent inhibition (IC50) curves were generated per compound tested, and data was analyzed using a 4-parameter logistic fit using GeneData Screener. The relative fluorescence unit (RFU) values were normalized to percent inhibition using the following equation:
% inhibition=((HC−LC)−(compound−LC)/(HC−LC))*100 where LC—low control=mean signal of no Factor XIa or 100% inhibition of Factor XIa; HC—high control=mean signal of Factor XIa+5Fam-[…]-K5Tamra peptide substrate with DMSO only.
An 11-point dose response curve for the test compound(s) was generated using GENDATA to determine IC50 value based on the following equation:
Y=Bottom+(Top−Bottom)/(1+10^((log IC50−X)*HillSlope)) where Y is the % inhibition in the presence of X inhibitor concentration, Top=high control=mean signal of Factor XIa+5Fam-[…]-K5Tamra peptide substrate with DMSO only; Bottom=low control−mean signal of no Factor XIa or 100% inhibition of Factor XIa; HillSlope—Hill coefficient; and IC50=concentration of compound with 50% inhibition in relation to top/high control.

[2] = target: human plasma kallikrein (Homo sapiens, UniProt P03952); test: Kallikrein inhibition assay utilizing a quenched AMC peptide substrate (FLINT, kinetic read); conditions: read-out: Kallikrein KIN Inh IC50
Chain of human plasma kallikrein (P03952 391-638 limits assumed): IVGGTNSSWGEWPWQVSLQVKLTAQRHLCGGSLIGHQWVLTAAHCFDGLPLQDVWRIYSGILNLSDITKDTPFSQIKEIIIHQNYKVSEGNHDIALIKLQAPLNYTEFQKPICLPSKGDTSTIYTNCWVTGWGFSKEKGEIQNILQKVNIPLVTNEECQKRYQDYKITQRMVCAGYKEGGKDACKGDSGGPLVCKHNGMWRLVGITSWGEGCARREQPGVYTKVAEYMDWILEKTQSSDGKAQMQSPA
Chain of human plasma kallikrein (P03952 20-390 partner limits assumed): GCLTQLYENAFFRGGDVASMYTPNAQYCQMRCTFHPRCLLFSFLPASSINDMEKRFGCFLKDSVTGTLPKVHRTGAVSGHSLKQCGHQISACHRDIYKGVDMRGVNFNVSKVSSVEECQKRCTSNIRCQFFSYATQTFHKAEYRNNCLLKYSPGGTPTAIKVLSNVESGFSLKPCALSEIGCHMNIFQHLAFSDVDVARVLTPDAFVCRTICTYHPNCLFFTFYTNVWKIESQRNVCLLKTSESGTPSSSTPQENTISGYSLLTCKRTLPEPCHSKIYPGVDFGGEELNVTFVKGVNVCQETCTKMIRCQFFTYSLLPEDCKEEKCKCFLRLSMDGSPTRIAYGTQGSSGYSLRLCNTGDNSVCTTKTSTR

[3] = target: T1, Factor XIa; test: Factor XIa inhibition assay utilizing a fluorophore-quencher pair peptide substrate (FLINT, kinetic read); conditions: peptide substrate cleaved by FXIa; fit to a substrate inhibition model

Row | Molecule | IC50 ([1]; values in nM) [µM] | IC50 ([2]; values given with μM) [µM] | IC50 ([2]; values in nM) [µM] | other results
1 | C[C@H]1C[C@@H](c2ncc(-c3ccnc(CN)c3)[nH]2)n2c1cc(-c1c(-n3cnnn3)ccc(Cl)c1F)cc2=O (relative stereo) [Example 39, (1*S,3*S)-3-(5-(2-(Aminomethyl)pyridin-4-yl)-1H-imidazol-2-yl)-7-(3-chloro-2-fluoro-6-(1H-tetrazol-1-yl)phenyl)-1-methyl-2,3-dihydroindolizin-5(1H)-one] |  |  |  | IC50 ([1]; values given with μM): 6.6 µM
2 | CC1C[C@@H](c2ncc(-c3cnns3)[nH]2)n2c1nc(-c1c(-n3cnnn3)ccc(Cl)c1F)cc2=O (stereo in doubt) [Example 110, (6*S)-6-(5-(1,2,3-Thiadiazol-5-yl)-1H-imidazol-2-yl)-2-(3-chloro-2-fluoro-6-(1H-tetrazol-1-yl)phenyl)-8-methyl-7,8-dihydropyrrolo[1,2-a]pyrimidin-4(6H)-one] | 0.0921 | 2.3 |  | 
3 | 5Fam-KLTRAETV-K5Tamra ({5‑FAM}-KLTRAETVK-{5‑TAMRA}) ["The peptide substrate ... designed with a fluorophore-quencher pair", "based on the Arg146 cleavage site of FXI", purchased from New England Peptide] |  |  |  | Ki [3]: 61.6 µM; Km [3]: 12.4 µM; kcat [3]: 0.86 s⁻¹
4 | C[C@H]1C[C@@H](c2[nH]c(-c3ccc(N)nc3F)nc2F)n2c1cc(-c1c(-n3cnnn3)ccc(Cl)c1F)cc2=O (relative stereo) [Example 35, (1*S,3*S)-3-(2-(6-Amino-2-fluoropyridin-3-yl)-4-fluoro-1H-imidazol-5-yl)-7-(3-chloro-2-fluoro-6-(1H-tetrazol-1-yl)phenyl)-1-methyl-2,3-dihydroindolizin-5(1H)-one] | ~0.61 | 9.8 |  | 
5 | C[C@H]1C[C@@H](c2ncc(-c3ccc(N)nc3F)[nH]2)n2c1nc(-c1c(-n3cnnn3)ccc(Cl)c1F)cc2=O (relative stereo) [Example 149, (6*S,8*S)-6-(5-(6-Amino-2-fluoropyridin-3-yl)-1H-imidazol-2-yl)-2-(3-chloro-2-fluoro-6-(1H-tetrazol-1-yl)phenyl)-8-methyl-7,8-dihydropyrrolo[1,2-a]pyrimidin-4(6H)-one] | 0.0003 |  | 0.0235 | 
6 | C[C@H]1C[C@@H](c2ncc(-c3ccnn3C)[nH]2)n2c1nc(-c1c(-n3cnnn3)ccc(Cl)c1F)cc2=O (relative stereo) [Example 146, (6*S,8*S)-2-(3-Chloro-2-fluoro-6-(1H-tetrazol-1-yl)phenyl)-8-methyl-6-(5-(1-methyl-1H-pyrazol-5-yl)-1H-imidazol-2-yl)-7,8-dihydropyrrolo[1,2-a]pyrimidin-4(6H)-one] | 0.009 |  | 0.296 | 
7 | Nc1ccc(-c2cnc([C@H]3CC4(CC4)c4cc(-c5cc(Cl)ccc5-n5cnnn5)cc(=O)n43)[nH]2)c(F)n1 (single isomer, unassigned) [Example 3] | 0.0027 |  | 0.0392 | 
8 | C[C@H]1C[C@H](c2ncc(-c3ccc(N)nc3Cl)[nH]2)n2c1cc(-c1c(-n3cnnn3)ccc(Cl)c1F)cc2=O (relative stereo) [Example 37, (1*S,3*R)-3-(5-(6-Amino-2-chloropyridin-3-yl)-1H-imidazol-2-yl)-7-(3-chloro-2-fluoro-6-(1H-tetrazol-1-yl)phenyl)-1-methyl-2,3-dihydroindolizin-5(1H)-one] | 0.283 | 7.8 |  | 
